One molecule from patent publication US20160137968A1, “TISSUE CULTURE TESTING SYSTEMS AND METHODS OF USE” (Barry University, priority 2014, published 2016) can be followed below.

The test system of one data set is S. aureus. As to the kind of experiment: Bioburden reduction in infected full-thickness skin tissue samples in Franz cells (total CFUs). The class given is cell-based, Staphylococcus aureus. The conditions noted are these: 0.1 liters/minute. The source says:
(§1) After an infection period is over, tissue samples can be homogenized, and serial dilutions can be grown on LB agar plates in order to facilitate the counting of colony formation units (CFUs), which approximate the level of bacteria present in the sample after infection. Other methods of quantifying infection and the various manifestations of infection are also possible, as would be recognized by one of ordinary skill in the art based on the present disclosure. For example, activation of various cytokines can be measured, as well as gene expression (upregulation and/or down regulation) of various genetic regulators of inflammatory and immune responses taking place in cells and tissues. These experimental procedures allow for the investigation of various experimental factors and perturbations, such as NO pressures, exposure times, and flow rates, in the context of skin infection and how they may influence bioburden reduction and wound healing.
(§2) In FIG. 4, the growth curves of several pathogenic bacteria are shown, including MRSA, Acinetobacter and Pseudomonas. In order to determine whether a given set of experimental factors or perturbations relating to NO exposure reduces bioburden, tissue samples were infected with the same concentration of bacteria under the same experimental conditions. […] In some aspects, 15 μl of a bacterial culture is sufficient to infect a cell or tissue sample.
(§3) Full-thickness skin tissue samples (e.g., EPIDERM tissue model from MatTek Corp., Ashland, Mass. 01721) were exposed to various experimental factors. […] The skin samples used were infected with S. aureus for 24 hours, followed by 90 minutes of pressurized exposure at a flow rate of 0.1 liters/minute.
(§4) The samples used were infected with Staphylococcus, MRSA, Acinetobacter or Pseudomonas.
(§5) Experiments were also conducted as described above in the previous examples to determine the minimum amount of exposure time necessary to obtain maximum reductions in bioburden. In some cases, determining the minimum tissue exposure time to gNO can reduce any potentially detrimental effects on the health of the tissue, while still reducing bioburden. Flow rate was maintained at 0.1 liters/minute, but the exposure time was shortened to 60 minutes at 1 ATM (independent of and in addition to the pressure applied by the external environment).
Experiments were also conducted as described above in the previous examples to determine the minimum amount of gNO pressure necessary to obtain maximum reductions in bioburden. In some cases, determining the minimum amount of gNO pressure can reduce any potentially detrimental effects on the health of the tissue, while still reducing bioburden.

The next data set has as its system A. baumannii. Described as above. It is filed as cell-based. The conditions noted are these: 1 ATM, 0.1 liters/minute.
Excerpt: as §1, §2, §3, §4, §5

The subject of a further data set is MRSA. The data set is described as above. It is filed as cell-based. The following applies: 1 ATM, 0.1 liters/minute.
Excerpt: as §1, §2, §3, §4, §5

A further data set relates to P. aeruginosa. The description is as above. The class given is cell-based. The following applies: 1 ATM, 0.1 liters/minute.
Excerpt: as §1, §2, §3, §4, §5

Data set [1] concerns full-thickness skin tissue samples. Briefly: Tissue viability using MTT assays. It is filed as cell-based, human. The protocol:
Experiments were also conducted to investigate the effects of various NO pressures, exposure times, and flow rates on tissue viability using MTT assays. An MTT assay is a colorimetric assay for assessing cell viability. NAD(P)H-dependent cellular oxidoreductase enzymes may, under defined conditions, reflect the number of viable cells present. These enzymes are capable of reducing the tetrazolium dye MTT 3-(4,5-dimethylthiazol-2-yl)-2,5-diphenyltetrazolium bromide to its insoluble formazan, which has a purple color. Other closely related tetrazolium dyes including XTT, MTS and the WSTs, can also be used. Tetrazolium-based dye assays can also be used to measure cytotoxicity (loss of viable cells) or cytostatic activity (shift from proliferation to quiescence) of potential medicinal agents and toxic materials.

Take `[N]=O` [gNO, Nitric Oxide]: the bioburden reduction entry was “sufficient to reduce bioburden” in the data set with S. aureus (NO at 0.25 ATM, 90 minutes, infected 24 hours) and “sufficient to reduce bioburden” in the data set on S. aureus (NO at 0.3 ATM, 90 minutes, infected 24 hours). Besides, the “log reduction in bioburden” value in the data set on S. aureus (S. aureus (biofilm-forming), 1% NO, 90 min, 1 ATM, infected 24 hours) is given as about 3 log; in the data set with A. baumannii (A. baumannii, 1% NO, 90 min, infected 24 hours), 5-6 log; with MRSA (1% NO, 90 min, infected 24 hours), 5-6 log; with P. aeruginosa (P. aeruginosa, 1% NO, 90 min, infected 24 hours) it was 5-6 log. In addition, the “reduction of bioburden compared to controls” value was “did not show significant reduction of bioburden” in the data set with S. aureus (S. aureus, 60 minutes, 1 ATM); “effective” in the data set on A. baumannii (A. baumannii, 60 minutes); “did not show significant reduction of bioburden” in the data set with MRSA (60 minutes); “effective” in the data set with P. aeruginosa (P. aeruginosa, 60 minutes). The “bacterial bioburden (CFUs)” value in the data set on S. aureus (Staphylococcus, 1% NO, 1 ATM, 120 minutes, 24 hours of infection) is recorded as “completely eliminated”; in the data set with A. baumannii (Acinetobacter, 1% NO, 120 minutes, 24 hours of infection), “completely eliminated”; with MRSA (1% NO, 120 minutes, 24 hours of infection) it was “completely eliminated”; in the data set on P. aeruginosa (Pseudomonas, 1% NO, 120 minutes, 24 hours of infection), “completely eliminated”. Also, the “bioburden (total CFUs)” value in the data set with S. aureus (pressurized gNO at 1 ATM compared to 0 ATM, 90 minutes, infected 24 hours) is reported as “did significantly reduce bioburden”. Moreover, the “tissue viability (MTT)” value in data set [1] (1% NO with or without pressure, as exposure time decreased) was “viability increased”; in data set [1] (combination of pressurized gNO and increasing concentrations of NO), “caused a decrease in viability”.
